Assay results as given in patent US20030104965A1, “Laundry sanitizer containing partially halogenated hydantoins” (Lonza Inc., priority 2001, published 2003).

Assays:
K. pneumoniae = assay: Petrocci & Clarke antimicrobial laundry additive test, cotton fabric, Tide powder plus sanitizer; type: cell-based; conditions: 30 ppm sanitizer (expressed as Cl2), mixture with Tide powder; for Percent Reduction of K. pneumonia on Fabric: cotton fabric
Description: Bioefficacy studies were performed using cotton fabric samples to compare monochloro dimethyl hydantoin (MCDMH) to trichloroisocyanuric acid (TCCA) and sodium dichloroisocyanurate (DCCA), two chlorine bleaches. Mixtures of Tide® powder, available from Procter and Gamble of Cincinnati, Ohio, and the sanitizers specified in Table 1 were prepared and thereafter dissolved in water. The sanitizers were completely dissolved in the water before testing. The mixtures were tested according to the known Petrocci & Clarke method (A. Petrocci and P. Clarke, Proposed Test Method for Antimicrobial Laundry Additives, Journal of the Association of Official Analytical Chemists, 52(4), 836-842 (1969)) against K. pneumoniae. The percent reduction of K. pneumonia on the fabric and on the wash water was determined.

[1] = tested on: Klebsiella pneumoniae ATCC 4352; assay: Simulated in-use laundry sanitation test (Petrocci and Clarke); type: cell-based; conditions: pH 7.0, Example 6
Description: A simulated “in-use” laundry sanitation test, as described in Petrocci and Clarke, supra, was conducted to evaluate the activity of the samples listed in Table 3 below.
The test was performed as follows. Fabric swatches were inoculated and dried with ˜20,000,000 cfu test organism. (Staphylococcus aureus ATCC 6538, Klebsiella pneumoniae ATCC 4352). The swatches were exposed to a sample dilution for 10 minutes followed by neutralization and enumeration of survivors. The percent reduction of bacteria was calculated for the fabric swatches and wash water.
The sample dilutions were prepared as follows. Tide® powder and MCDMH were dissolved separately in water and mixed together. Then the mixture was adjusted to 150 ppm hard water. The Tide® powder mixture contained about 1.8 g of Tide® powder per liter of mixture.
The procedure in Example 5 was repeated with Klebsiella pneumonia ATCC 4352 only. The Tide® liquid sample was prepared by the same procedure as the Tide® powder sample described in Example 5. The Tide® liquid mixture contained about 1.8 g of Tide® liquid per liter of mixture.

Row | Compound | Percent Reduction of K. pneumonia in Wash Water (K. pneumoniae) [%] | Percent Reduction of K. pneumonia on Fabric (K. pneumoniae) [%] | % Reduction in 10 Minutes - Kiebsiella Fabric ([1]; 5 ppm (expressed as Cl2)) [%] | % Reduction in 10 Minutes - Kiebsiella Water ([1]; 5 ppm (expressed as Cl2)) [%] | % Reduction in 10 Minutes - Kiebsiella Fabric ([1]; 10 ppm (expressed as Cl2)) [%] | % Reduction in 10 Minutes - Kiebsiella Water ([1]; 10 ppm (expressed as Cl2)) [%] | % Reduction in 10 Minutes - Kiebsiella Fabric ([1]; 20 ppm (expressed as Cl2)) [%] | % Reduction in 10 Minutes - Kiebsiella Water ([1]; 20 ppm (expressed as Cl2)) [%]
1 | O=c1nc([O-])n(Cl)c(=O)n1Cl.[Na+] [DCCA, sodium dichloroisocyanurate] | 87.50 | 96.36 |  |  |  |  |  | 
2 | O=c1n(Cl)c(=O)n(Cl)c(=O)n1Cl [TCCA, trichloroisocyanuric acid] | 96.38 | 97.09 |  |  |  |  |  | 
3 | monochloro-5,5-dimethyl hydantoin [MCDMH] | 99.76 | 99.60 | 99.99 | 100 | 100 | 100 | 100 | 100
